Tests used:
dogNav1.7 = dogNav1.7 (Canis lupus familiaris, UniProt A0A8I3P4Z8); test: cell-based; assay type: cell-based, dog
Histamine H1 receptor = Histamine H1 receptor (Homo sapiens, UniProt P35367); test: Off target activity panel; assay type: binding; details: read-out: Inhibition at test concentration (%)
Urotensin receptor = Urotensin receptor (Homo sapiens, UniProt Q9UKP6); test: Off target activity panel; assay type: binding; details: read-out: Inhibition at test concentration (%)
PDE11 = PDE11 (Homo sapiens, UniProt Q9HCR9); test: Off target activity panel; assay type: biochemical; details: read-out: Inhibition at test concentration (%)
[1] = molecular target: Adrenergic alpha 2B receptor (Homo sapiens, UniProt P18089); test: Off target activity panel; assay type: binding; details: read-out: Inhibition at test concentration (%)
Serotonin 5-HT2C = Serotonin 5-HT2C (Homo sapiens, UniProt P28335); test: Off target activity panel (second 5-HT2C line); assay type: binding; details: read-out: Inhibition at test concentration (%)
Melanocortin 4 receptor = Melanocortin 4 receptor (Homo sapiens, UniProt P32245); test: Off target activity panel; assay type: binding; details: read-out: Inhibition at test concentration (%)
[2] = molecular target: Serotonin 5-HT transporter (Homo sapiens, UniProt P31645); test: Off target activity panel; assay type: binding; details: read-out: Inhibition at test concentration (%)
Serotonin 5-HT1B = Serotonin 5-HT1B (Homo sapiens, UniProt P28222); test: Off target activity panel; assay type: binding; details: read-out: Inhibition at test concentration (%)
Cyclooxegenase 2 = Cyclooxegenase 2 (Homo sapiens, UniProt P35354); test: Off target activity panel; assay type: biochemical
Sigma receptor = test: Off target activity panel; assay type: binding; details: 10 µM
PDE4 rolipram binding = test: Off target activity panel; details: 10 µM
Serotinin 5-HT2B = Serotinin 5-HT2B (Homo sapiens, UniProt P41595); test: Off target activity panel; assay type: binding; details: read-out: Inhibition at test concentration (%)
cynNav1.7 = cynNav1.7 (Macaca fascicularis, UniProt A0A2K5WIF4); test: cell-based; assay type: cell-based, cynomologus macaque
PPAR gamma = molecular target: T1, PPAR gamma (Homo sapiens, UniProt P37231); test: Off target panel, functional activity (agonist/antagonist); assay type: biochemical; details: at 10 µM
T1 sequence (P37231 1-505): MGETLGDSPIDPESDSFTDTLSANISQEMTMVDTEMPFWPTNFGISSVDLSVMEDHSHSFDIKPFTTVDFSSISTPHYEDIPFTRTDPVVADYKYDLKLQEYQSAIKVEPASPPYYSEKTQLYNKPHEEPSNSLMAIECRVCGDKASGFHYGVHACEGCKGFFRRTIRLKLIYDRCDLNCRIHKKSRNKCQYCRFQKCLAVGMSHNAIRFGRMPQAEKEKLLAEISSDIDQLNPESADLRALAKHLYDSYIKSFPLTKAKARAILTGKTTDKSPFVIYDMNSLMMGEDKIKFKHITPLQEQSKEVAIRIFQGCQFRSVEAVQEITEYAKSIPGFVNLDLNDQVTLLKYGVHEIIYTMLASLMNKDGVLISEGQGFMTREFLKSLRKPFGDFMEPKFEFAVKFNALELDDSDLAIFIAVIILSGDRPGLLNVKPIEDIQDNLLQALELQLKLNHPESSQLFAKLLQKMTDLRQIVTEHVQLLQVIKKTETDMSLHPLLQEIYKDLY

Serotonin 5-HT4 = Serotonin 5-HT4 (Homo sapiens, UniProt Q13639); test: Off target activity panel; assay type: binding; details: read-out: Inhibition at test concentration (%)
Dopamine D3 receptor = Dopamine D3 receptor (Homo sapiens, UniProt P35462); test: Off target activity panel; assay type: binding; details: read-out: Inhibition at test concentration (%)
[3] = test system: Adrenergic alpha 1 receptor; test: Off target activity panel; assay type: binding; details: 10 µM
[4] = test system: Calcium channel L-type (diltiazem site); test: Off target activity panel; assay type: binding; details: 10 µM
Dopamine transporter = Dopamine transporter (Homo sapiens, UniProt Q01959); test: Off target activity panel; assay type: binding; details: read-out: Inhibition at test concentration (%)
Cannabinoid receptor 1 = Cannabinoid receptor 1 (Homo sapiens, UniProt P21554); test: Off target activity panel; assay type: binding; details: read-out: Inhibition at test concentration (%)
Adenosine A2a receptor = Adenosine A2a receptor (Homo sapiens, UniProt P29274); test: Off target activity panel; assay type: binding; details: read-out: Inhibition at test concentration (%)
human TRPV1 receptor = human TRPV1 receptor (Homo sapiens, UniProt Q8NER1); test: Blockade of human TRPV1 receptor
GABAA channel = test: Off target activity panel; assay type: binding; details: 10 µM
p38alpha kinase = p38alpha kinase (Homo sapiens, UniProt Q16539); test: Off target activity panel; assay type: biochemical; details: read-out: Inhibition at test concentration (%)
[5] = test system: cynomolgus TRPV1 receptor; test: Blockade of cynomolgus TRPV1 receptor; details: tested concentrations up to 10 μM
Neurokinin NK1 receptor = Neurokinin NK1 receptor (Homo sapiens, UniProt P25103); test: Off target activity panel; assay type: binding; details: read-out: Inhibition at test concentration (%)
[6] = test system: Muscle-type nicotinic receptor; test: Off target activity panel; assay type: binding; details: 10 µM
Somatostatin receptor 4 = Somatostatin receptor 4 (Homo sapiens, UniProt P31391); test: Off target activity panel; assay type: binding; details: read-out: Inhibition at test concentration (%)
PDE3B = PDE3B (Homo sapiens, UniProt Q13370); test: Off target activity panel; assay type: biochemical; details: read-out: Inhibition at test concentration (%)
[7] = molecular target: Cholycystokinin 2 (CCKB) receptor (Homo sapiens, UniProt P32239); test: Off target activity panel; assay type: binding; details: read-out: Inhibition at test concentration (%)
[8] = molecular target: Beta 1 adrenergic receptor (Homo sapiens, UniProt P08588); test: Off target activity panel; assay type: binding; details: read-out: Inhibition at test concentration (%)
Serotonin 5-HT3 = Serotonin 5-HT3 (Homo sapiens, UniProt P46098); test: Off target activity panel; assay type: binding; details: read-out: Inhibition at test concentration (%)
[9] = molecular target: Beta 2 adrenergic receptor (Homo sapiens, UniProt P07550); test: Off target activity panel; assay type: binding; details: read-out: Inhibition at test concentration (%)
Histamine H3 receptor = Histamine H3 receptor (Homo sapiens, UniProt Q9Y5N1); test: Off target activity panel; assay type: binding; details: read-out: Inhibition at test concentration (%)
Kappa opioid receptor = Kappa opioid receptor (Homo sapiens, UniProt P41145); test: Off target activity panel; assay type: binding
FLT-1 kinase = FLT-1 kinase (Homo sapiens, UniProt P17948); test: Off target activity panel; assay type: biochemical; details: read-out: Inhibition at test concentration (%)
[10] = 10 µM, read-out: Inhibition at test concentration (%)

Nc1[nH]ncc1-c1cc(Cl)ccc1Oc1cc(F)c(S(=O)(=O)Nc2cscn2)cc1Cl [PF-05089771, 4-[2-(5-amino-1H-pyrazol-4-yl)-4-chlorophenoxy]-5-chloro-2-fluoro-N-(1,3-thiazol-4-yl)benzenesulfonamide]
IC50 (dogNav1.7): 13 nM | Slope (dogNav1.7; dogNav1.7): 0.9 | inhibition at 10 µM (Histamine H1 receptor): 12% | inhibition at 10 µM (Urotensin receptor): 32% | inhibition at 10 µM (PDE11): 6% | inhibition at 10 µM [1]: 24% | inhibition at 10 µM (Serotonin 5-HT2C): 4% | inhibition at 10 µM (Melanocortin 4 receptor): -11% | inhibition at 10 µM [2]: 0% | inhibition at 10 µM (Serotonin 5-HT1B): 6% | inhibition at 10 µM (Cyclooxegenase 2; [10]): 72% | Ki (Cyclooxegenase 2; Cyclooxegenase 2): 5400 nM | Inhibition at test concentration (%) (Sigma receptor): -8% | Inhibition at test concentration (%) (PDE4 rolipram binding): 10% | inhibition at 10 µM (Serotinin 5-HT2B): -6% | IC50 (cynNav1.7): 12 nM | Slope (cynNav1.7; cynNav1.7): 1.1 | Functional activity (PPAR gamma): no agonist or antagonist activity at 10 µM | inhibition at 10 µM (Serotonin 5-HT4): -7% | inhibition at 10 µM (Dopamine D3 receptor): 16% | Inhibition at test concentration (%) [3]: -5% | Inhibition at test concentration (%) [4]: 16% | inhibition at 10 µM (Dopamine transporter): 18% | inhibition at 10 µM (Cannabinoid receptor 1): 0% | inhibition at 10 µM (Adenosine A2a receptor): 15% | Functional activity (human TRPV1 receptor; at 20 µM, TRPV1): No agonist or antagonist activity at 20 µM | Blockade of human TRPV1 receptor (human TRPV1 receptor; tested concentrations up to 20 μM): No blockade | Inhibition at test concentration (%) (GABAA channel): 41% | inhibition at 10 µM (p38alpha kinase): 8% | Blockade of cynomolgus TRPV1 receptor [5]: No blockade | inhibition at 10 µM (Neurokinin NK1 receptor): 5% | Inhibition at test concentration (%) [6]: 2% | inhibition at 10 µM (Somatostatin receptor 4): 5% | inhibition at 10 µM (PDE3B): 4% | inhibition at 10 µM [7]: 13% | inhibition at 10 µM [8]: 12% | inhibition at 10 µM (Serotonin 5-HT3): 4% | inhibition at 10 µM [9]: 4% | inhibition at 10 µM (Histamine H3 receptor): 10% | inhibition at 10 µM (Kappa opioid receptor; [10]): 86% | Ki (Kappa opioid receptor; Kappa opioid receptor): 390 nM | inhibition at 10 µM (FLT-1 kinase): 14%

Source: paper PMC4822888, “Subtype-Selective Small Molecule Inhibitors Reveal a Fundamental Role for Nav1.7 in Nociceptor Electrogenesis, Axonal Conduction and Presynaptic Release” (PLoS ONE, 2016)
